Measured values published in patent EP4745135A1 (Gluetacs Therapeutics (Shanghai) Co., Ltd., priority 2023, dated 2025).

Tests used:
CK1α = biological target: T1, CK1α (Homo sapiens, UniProt P48729+Q96SW2); assay: Western blot, degradation of substrate protein in hPBMCs; assay type: cell-based
T1 construct: effects of the compounds of the present disclosure on the expression of target proteins in cells; endogenous in cells; host or cells: human PBMCs (Milecell Biotechnologies)

IKZF1 = biological target: T2, IKZF1 (Homo sapiens, UniProt Q13422+Q96SW2); assay: as above; assay type: cell-based
T2 construct: effects of the compounds of the present disclosure on the expression of target proteins in cells; endogenous in cells; host or cells: human PBMCs (Milecell Biotechnologies)

IKZF2 = biological target: T3, IKZF2 (Homo sapiens, UniProt Q96SW2+Q9UKS7); assay: as above; assay type: cell-based
T3 construct: effects of the compounds of the present disclosure on the expression of target proteins in cells; endogenous in cells; host or cells: human PBMCs (Milecell Biotechnologies)

IKZF3 = biological target: T4, IKZF3 (Homo sapiens, UniProt Q96SW2+Q9UKT9); assay: as above; assay type: cell-based
T4 construct: effects of the compounds of the present disclosure on the expression of target proteins in cells; endogenous in cells; host or cells: human PBMCs (Milecell Biotechnologies)

WEE1 = biological target: T5, WEE1 (Homo sapiens, UniProt P30291+Q96SW2); assay: as above; assay type: cell-based
T5 construct: effects of the compounds of the present disclosure on the expression of target proteins in cells; endogenous in cells; host or cells: human PBMCs (Milecell Biotechnologies)

GSPT1 = assay: as above; assay type: cell-based, Human
[1] = biological target: T6, human Cereblon WT GST-tagged protein (Homo sapiens, UniProt Q96SW2); assay: CRBN-binding affinity, HTRF (CEREBLON BINDING kit); details: for inhibition at 0.5 µM: read-out: Inhibition Rate at 0.5 µM (%); for inhibition at 2 µM: read-out: Inhibition Rate at 2 µM (%)
T6 construct: purchased CISBIO 64BDCRBNPEH

[2] = Western blot, 24 hours of compound treatment, compounds tested at 50 nM and 500 nM (concentration for the table not stated)
[3] = 24 hours treatment, compounds at 50 nM and 500 nM (concentration behind the class not stated)

T2 sequence (Q13422 whole entry): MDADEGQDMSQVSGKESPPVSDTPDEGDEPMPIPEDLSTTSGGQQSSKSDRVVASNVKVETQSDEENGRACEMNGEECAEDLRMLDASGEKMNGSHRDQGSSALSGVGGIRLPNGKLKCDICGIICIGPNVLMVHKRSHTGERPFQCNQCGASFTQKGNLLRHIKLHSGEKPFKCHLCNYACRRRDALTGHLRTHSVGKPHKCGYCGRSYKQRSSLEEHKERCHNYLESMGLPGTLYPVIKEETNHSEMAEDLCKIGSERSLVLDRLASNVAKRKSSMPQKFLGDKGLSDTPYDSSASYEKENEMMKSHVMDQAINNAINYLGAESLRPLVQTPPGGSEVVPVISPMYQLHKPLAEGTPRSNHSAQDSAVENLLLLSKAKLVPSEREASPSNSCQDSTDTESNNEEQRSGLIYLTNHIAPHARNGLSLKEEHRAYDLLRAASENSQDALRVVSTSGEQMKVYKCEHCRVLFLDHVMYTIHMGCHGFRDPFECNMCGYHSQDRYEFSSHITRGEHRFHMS
T2 sequence (Q96SW2 whole entry): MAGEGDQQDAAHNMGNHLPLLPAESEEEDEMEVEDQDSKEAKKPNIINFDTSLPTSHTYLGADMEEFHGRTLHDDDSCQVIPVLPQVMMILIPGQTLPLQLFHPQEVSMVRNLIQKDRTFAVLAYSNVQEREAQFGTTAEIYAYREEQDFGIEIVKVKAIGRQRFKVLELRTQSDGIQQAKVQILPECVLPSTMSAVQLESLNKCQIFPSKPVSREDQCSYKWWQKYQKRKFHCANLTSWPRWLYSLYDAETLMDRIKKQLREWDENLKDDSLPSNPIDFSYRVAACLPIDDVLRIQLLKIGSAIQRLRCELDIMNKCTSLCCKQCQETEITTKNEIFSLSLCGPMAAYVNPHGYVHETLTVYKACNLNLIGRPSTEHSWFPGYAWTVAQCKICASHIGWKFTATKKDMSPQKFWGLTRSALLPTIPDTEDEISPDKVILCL
T2 sequence (Q16531 whole entry partner): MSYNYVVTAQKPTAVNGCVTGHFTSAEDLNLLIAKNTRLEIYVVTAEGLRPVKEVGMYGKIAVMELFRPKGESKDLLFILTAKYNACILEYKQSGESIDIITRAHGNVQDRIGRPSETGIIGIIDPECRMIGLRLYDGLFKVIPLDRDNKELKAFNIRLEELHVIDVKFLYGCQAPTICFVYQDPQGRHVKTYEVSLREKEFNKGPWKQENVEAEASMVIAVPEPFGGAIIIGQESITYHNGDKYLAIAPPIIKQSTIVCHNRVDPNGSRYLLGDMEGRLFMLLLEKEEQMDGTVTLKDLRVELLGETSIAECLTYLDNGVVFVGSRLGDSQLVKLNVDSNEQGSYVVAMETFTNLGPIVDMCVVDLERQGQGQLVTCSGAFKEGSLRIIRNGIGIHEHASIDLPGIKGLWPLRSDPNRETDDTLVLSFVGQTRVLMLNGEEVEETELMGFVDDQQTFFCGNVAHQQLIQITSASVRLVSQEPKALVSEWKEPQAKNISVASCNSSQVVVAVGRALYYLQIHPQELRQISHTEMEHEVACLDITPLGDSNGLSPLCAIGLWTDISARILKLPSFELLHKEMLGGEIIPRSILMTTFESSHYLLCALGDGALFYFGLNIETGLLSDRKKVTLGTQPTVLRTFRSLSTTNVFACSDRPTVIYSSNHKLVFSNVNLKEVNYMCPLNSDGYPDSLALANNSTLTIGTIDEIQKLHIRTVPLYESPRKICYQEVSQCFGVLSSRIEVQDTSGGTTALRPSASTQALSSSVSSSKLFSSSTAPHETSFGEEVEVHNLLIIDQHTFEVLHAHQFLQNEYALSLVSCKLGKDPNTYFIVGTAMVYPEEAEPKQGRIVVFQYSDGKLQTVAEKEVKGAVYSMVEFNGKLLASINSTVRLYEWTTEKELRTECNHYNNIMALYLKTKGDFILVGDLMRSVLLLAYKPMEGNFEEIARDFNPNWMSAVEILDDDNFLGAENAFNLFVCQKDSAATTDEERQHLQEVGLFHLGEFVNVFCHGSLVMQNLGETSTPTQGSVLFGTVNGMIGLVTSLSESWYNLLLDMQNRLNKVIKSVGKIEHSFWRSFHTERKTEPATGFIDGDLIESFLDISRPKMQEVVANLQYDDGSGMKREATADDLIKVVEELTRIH
T5 sequence (P30291 whole entry): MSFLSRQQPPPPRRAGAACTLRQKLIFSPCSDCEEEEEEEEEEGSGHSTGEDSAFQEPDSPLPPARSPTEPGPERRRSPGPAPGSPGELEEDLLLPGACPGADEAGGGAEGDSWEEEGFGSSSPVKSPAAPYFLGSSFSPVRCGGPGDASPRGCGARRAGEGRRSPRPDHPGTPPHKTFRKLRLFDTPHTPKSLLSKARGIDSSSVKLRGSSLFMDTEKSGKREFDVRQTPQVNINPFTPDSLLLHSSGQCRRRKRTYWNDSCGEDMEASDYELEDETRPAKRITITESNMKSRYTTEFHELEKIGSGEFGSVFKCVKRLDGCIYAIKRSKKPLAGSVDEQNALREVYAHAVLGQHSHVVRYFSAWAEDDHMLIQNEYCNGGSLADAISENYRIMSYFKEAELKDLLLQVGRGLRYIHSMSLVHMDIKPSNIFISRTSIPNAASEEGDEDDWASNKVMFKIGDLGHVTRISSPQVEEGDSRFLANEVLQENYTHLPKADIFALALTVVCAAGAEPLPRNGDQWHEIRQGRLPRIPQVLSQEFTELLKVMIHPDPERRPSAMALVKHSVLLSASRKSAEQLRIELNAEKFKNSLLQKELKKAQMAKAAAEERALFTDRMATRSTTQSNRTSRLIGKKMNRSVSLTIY
T5 sequence (Q96SW2 whole entry): as the sequence (Q96SW2 whole entry) above
T5 sequence (Q16531 whole entry partner): as the sequence (Q16531 whole entry partner) above
T3 sequence (Q9UKS7 whole entry): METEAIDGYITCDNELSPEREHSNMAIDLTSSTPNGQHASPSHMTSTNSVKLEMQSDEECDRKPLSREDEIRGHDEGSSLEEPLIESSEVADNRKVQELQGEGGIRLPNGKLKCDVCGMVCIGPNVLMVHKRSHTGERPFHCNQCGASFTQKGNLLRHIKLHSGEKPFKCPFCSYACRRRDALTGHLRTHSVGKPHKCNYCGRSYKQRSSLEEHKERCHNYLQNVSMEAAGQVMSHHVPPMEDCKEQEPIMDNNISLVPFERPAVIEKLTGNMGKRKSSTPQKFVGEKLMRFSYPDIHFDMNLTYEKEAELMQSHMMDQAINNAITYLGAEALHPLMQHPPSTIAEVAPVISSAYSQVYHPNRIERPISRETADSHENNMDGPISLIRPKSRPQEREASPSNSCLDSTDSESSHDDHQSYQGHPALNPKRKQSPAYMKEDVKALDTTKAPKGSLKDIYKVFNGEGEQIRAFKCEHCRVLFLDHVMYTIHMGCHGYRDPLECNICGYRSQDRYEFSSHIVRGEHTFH
T3 sequence (Q96SW2 whole entry): as the sequence (Q96SW2 whole entry) above
T3 sequence (Q16531 whole entry partner): as the sequence (Q16531 whole entry partner) above
T6 sequence (Q96SW2 whole entry): as the sequence (Q96SW2 whole entry) above
T4 sequence (Q9UKT9 whole entry): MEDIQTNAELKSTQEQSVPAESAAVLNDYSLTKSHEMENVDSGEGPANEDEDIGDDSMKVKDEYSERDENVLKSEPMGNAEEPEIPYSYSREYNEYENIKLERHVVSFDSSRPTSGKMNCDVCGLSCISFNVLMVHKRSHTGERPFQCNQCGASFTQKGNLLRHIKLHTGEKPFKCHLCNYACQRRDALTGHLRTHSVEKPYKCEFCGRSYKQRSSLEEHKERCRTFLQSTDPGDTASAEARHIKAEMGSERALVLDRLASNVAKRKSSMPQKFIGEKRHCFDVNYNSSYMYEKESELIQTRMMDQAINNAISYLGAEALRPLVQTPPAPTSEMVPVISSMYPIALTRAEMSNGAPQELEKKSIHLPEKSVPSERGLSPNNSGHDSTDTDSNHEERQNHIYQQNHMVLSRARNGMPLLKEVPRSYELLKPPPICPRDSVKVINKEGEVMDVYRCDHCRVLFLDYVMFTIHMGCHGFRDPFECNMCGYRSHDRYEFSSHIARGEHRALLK
T4 sequence (Q96SW2 whole entry): as the sequence (Q96SW2 whole entry) above
T4 sequence (Q16531 whole entry partner): as the sequence (Q16531 whole entry partner) above
T1 sequence (P48729 whole entry): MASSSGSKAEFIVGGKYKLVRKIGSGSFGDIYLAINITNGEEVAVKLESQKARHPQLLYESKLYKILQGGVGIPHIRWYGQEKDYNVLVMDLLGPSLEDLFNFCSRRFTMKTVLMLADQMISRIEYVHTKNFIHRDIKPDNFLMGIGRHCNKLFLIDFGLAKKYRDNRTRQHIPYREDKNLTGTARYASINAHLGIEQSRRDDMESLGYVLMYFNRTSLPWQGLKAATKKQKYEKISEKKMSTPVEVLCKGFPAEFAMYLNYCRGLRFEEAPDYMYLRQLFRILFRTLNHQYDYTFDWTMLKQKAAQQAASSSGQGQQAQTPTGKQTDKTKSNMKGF
T1 sequence (Q96SW2 whole entry): as the sequence (Q96SW2 whole entry) above
T1 sequence (Q16531 whole entry partner): as the sequence (Q16531 whole entry partner) above

SMILES | CK1α substrate protein remaining % (CK1α; [2]) | IKZF 1 substrate protein remaining % (IKZF1; [2]) | IKZF2 substrate protein remaining % (IKZF2; [2]) | IKZF3 substrate protein remaining % (IKZF3; [2]) | Wee1 substrate protein remaining % (WEE1; [2]) | GSPT1 substrate protein remaining % (GSPT1; [2]) | inhibition at 0.5 µM [1] | inhibition at 2 µM [1] | CK1α substrate protein remaining % (CK1α; [3]) | IKZF 1 substrate protein remaining % (IKZF1; [3]) | IKZF2 substrate protein remaining % (IKZF2; [3]) | IKZF3 substrate protein remaining % (IKZF3; [3]) | Wee1 substrate protein remaining % (WEE1; [3]) | GSPT1 substrate protein remaining % (GSPT1; [3])
O=C1CCC(N2Cc3cc(CN4CCN(c5c(F)cccc5F)CC4)ccc3C2=S)C(=O)N1 (stereo not drawn) [GT-08626, 3-(5-((4-(2,6-difluorophenyl)piperazin-1-yl)methyl)-1-thioxoisoindolin-2-yl)piperidine-2,6-dione] | B (80%< substrate protein remaining %≤ 100%) | B (80%< substrate protein remaining %≤ 100%) | B (80%< substrate protein remaining %≤ 100%) | B (80%< substrate protein remaining %≤ 100%) | B (80%< substrate protein remaining %≤ 100%) | A (0% ≤ substrate protein remaining % ≤ 80%) | 60 to 80% | 80 to 100% |  |  |  |  |  | 
O=C1CCC(N2Cc3c(CN4CCN(c5c(F)cccc5F)CC4)cccc3C2=S)C(=O)N1 (stereo not drawn) [GT-08630, 3-(4-((4-(2,6-difluorophenyl)piperazin-1-yl)methyl)-1-thioxoisoindolin-2-yl)piperidine-2,6-dione] | B (80%< substrate protein remaining %≤ 100%) | B (80%< substrate protein remaining %≤ 100%) | B (80%< substrate protein remaining %≤ 100%) | B (80%< substrate protein remaining %≤ 100%) | A (0% ≤ substrate protein remaining % ≤ 80%) | A (0% ≤ substrate protein remaining % ≤ 80%) | 53 to 60% | 60 to 80% |  |  |  |  |  | 
O=C1CCC(N2Cc3c(CN4CCN(c5ccc(F)cn5)CC4)cccc3C2=S)C(=O)N1 (stereo not drawn) [GT-08699, 3-(4-((4-(5-fluoropyridin-2-yl)piperazin-1-yl)methyl)-1-thioxoisoindolin-2-yl)piperidine-2,6-dione] | B (80%< substrate protein remaining %≤ 100%) | B (80%< substrate protein remaining %≤ 100%) | B (80%< substrate protein remaining %≤ 100%) | B (80%< substrate protein remaining %≤ 100%) | A (0% ≤ substrate protein remaining % ≤ 80%) | B (80%< substrate protein remaining %≤ 100%) | 53 to 60% | 80 to 100% |  |  |  |  |  | 
O=C1CCC(N2Cc3cc(CN4CCC(n5c(=O)[nH]c6cc(F)ccc65)CC4)ccc3C2=S)C(=O)N1 (stereo not drawn) [GT-09263, 3-(5-((4-(5-fluoro-2-oxo-2,3-dihydro-1H-benzo[d]imidazol-1-yl)piperidin-1-yl)methyl)-1-thioxoisoindolin-2-yl)piperidine-2,6-dione] |  |  |  |  |  |  | 60 to 80% | 80 to 100% | B (80%< substrate protein remaining %≤ 100%) | B (80%< substrate protein remaining %≤ 100%) | B (80%< substrate protein remaining %≤ 100%) | B (80%< substrate protein remaining %≤ 100%) | B (80%< substrate protein remaining %≤ 100%) | A (0% ≤ substrate protein remaining % ≤ 80%)
O=C1CCC(N2Cc3c(CN4C5CCC4CN(C(c4ccccc4)c4ccccc4)C5)cccc3C2=S)C(=O)N1 (stereo not drawn) [GT-08235, 3-(4-((3-benzhydryl-3,8-diazabicyclo[3.2.1]octan-8-yl)methyl)-1-thioxoisoindolin-2-yl)piperidine-2,6-dione] | B (80%< substrate protein remaining %≤ 100%) | B (80%< substrate protein remaining %≤ 100%) | B (80%< substrate protein remaining %≤ 100%) | B (80%< substrate protein remaining %≤ 100%) | B (80%< substrate protein remaining %≤ 100%) | A (0% ≤ substrate protein remaining % ≤ 80%) | 40 to 53% | 80 to 100% |  |  |  |  |  | 
O=C1CCC(N2Cc3cc(CN4CCN(c5ccnc(Br)c5F)CC4)ccc3C2=S)C(=O)N1 (stereo not drawn) [GT-09241, 3-(5-((4-(2-bromo-3-fluoropyridin-4-yl)piperazin-1-yl)methyl)-1-thioxoisoindolin-2-yl)piperidine-2,6-dione] |  |  |  |  |  |  | 60 to 80% | 80 to 100% | B (80%< substrate protein remaining %≤ 100%) | B (80%< substrate protein remaining %≤ 100%) | B (80%< substrate protein remaining %≤ 100%) | B (80%< substrate protein remaining %≤ 100%) | B (80%< substrate protein remaining %≤ 100%) | A (0% ≤ substrate protein remaining % ≤ 80%)
O=C1CCC(N2Cc3c(CN4CCN(c5c(F)c(F)nc(F)c5F)CC4)cccc3C2=S)C(=O)N1 (stereo not drawn) [GT-08809, 3-(4-((4-(perfluoropyridin-4-yl)piperazin-1-yl)methyl)-1-thioxoisoindolin-2-yl)piperidine-2,6-dione] | B (80%< substrate protein remaining %≤ 100%) | A (0% ≤ substrate protein remaining % ≤ 80%) | A (0% ≤ substrate protein remaining % ≤ 80%) | A (0% ≤ substrate protein remaining % ≤ 80%) | A (0% ≤ substrate protein remaining % ≤ 80%) | A (0% ≤ substrate protein remaining % ≤ 80%) | 53 to 60% | 80 to 100% |  |  |  |  |  | 
O=C1CCC(N2Cc3c(CN4CCN(c5ccnc(Cl)c5Br)CC4)cccc3C2=S)C(=O)N1 (stereo not drawn) [GT-08734, 3-(4-((4-(3-bromo-2-chloropyridin-4-yl)piperazin-1-yl)methyl)-1-thioxoisoindolin-2-yl)piperidine-2,6-dione] | B (80%< substrate protein remaining %≤ 100%) | B (80%< substrate protein remaining %≤ 100%) | B (80%< substrate protein remaining %≤ 100%) | B (80%< substrate protein remaining %≤ 100%) | A (0% ≤ substrate protein remaining % ≤ 80%) | A (0% ≤ substrate protein remaining % ≤ 80%) | 60 to 80% | 80 to 100% |  |  |  |  |  | 
O=C1CCC(N2Cc3c(CN4CCN(c5cc(F)ccc5F)CC4)cccc3C2=S)C(=O)N1 (stereo not drawn) [GT-08593, 3-(4-((4-(2,5-difluorophenyl)piperazin-1-yl)methyl)-1-thioxoisoindolin-2-yl)piperidine-2,6-dione] | B (80%< substrate protein remaining %≤ 100%) | B (80%< substrate protein remaining %≤ 100%) | B (80%< substrate protein remaining %≤ 100%) | B (80%< substrate protein remaining %≤ 100%) | A (0% ≤ substrate protein remaining % ≤ 80%) | B (80%< substrate protein remaining %≤ 100%) | 40 to 53% | 60 to 80% |  |  |  |  |  | 
O=C1CCC(N2Cc3cc(CN4CCN(c5cccc(F)n5)CC4)ccc3C2=S)C(=O)N1 (stereo not drawn) [GT-09221, 3-(5-((4-(6-fluoropyridin-2-yl)piperazin-1-yl)methyl)-1-thioxoisoindolin-2-yl)piperidine-2,6-dione] | B (80%< substrate protein remaining %≤ 100%) | A (0% ≤ substrate protein remaining % ≤ 80%) | B (80%< substrate protein remaining %≤ 100%) | B (80%< substrate protein remaining %≤ 100%) | A (0% ≤ substrate protein remaining % ≤ 80%) | B (80%< substrate protein remaining %≤ 100%) | 80 to 100% | 80 to 100% |  |  |  |  |  | 
O=C1CCC(N2Cc3c(CN4CCC(c5ccnc(F)c5F)CC4)cccc3C2=S)C(=O)N1 (stereo not drawn) [GT-08459, 3-(4-((4-(2,3-difluoropyridin-4-yl)piperidin-1-yl)methyl)-1-thioxoisoindolin-2-yl)piperidine-2,6-dione] | B (80%< substrate protein remaining %≤ 100%) | B (80%< substrate protein remaining %≤ 100%) | B (80%< substrate protein remaining %≤ 100%) | B (80%< substrate protein remaining %≤ 100%) | A (0% ≤ substrate protein remaining % ≤ 80%) | B (80%< substrate protein remaining %≤ 100%) | 60 to 80% | 80 to 100% |  |  |  |  |  | 
Cc1ccccc1N1CCN(Cc2ccc3c(c2)CN(C2CCC(=O)NC2=O)C3=S)CC1 (stereo not drawn) [GT-08601, 3-(1-thioxo-5-((4-(o-tolyl)piperazin-1-yl)methyl)isoindolin-2-yl)piperidine-2,6-dione] | B (80%< substrate protein remaining %≤ 100%) | B (80%< substrate protein remaining %≤ 100%) | B (80%< substrate protein remaining %≤ 100%) | B (80%< substrate protein remaining %≤ 100%) | B (80%< substrate protein remaining %≤ 100%) | A (0% ≤ substrate protein remaining % ≤ 80%) | 40 to 53% | 80 to 100% |  |  |  |  |  | 
